Drawing on PubChem BioAssay (NCI), this text covers TGI for two compounds.

Test systems include RPMI-8226 leukemia; LXFL 529 NSCLC; K-562 leukemia; SN12C renal; HOP-92 NSCLC; KM20L2 colon; XF 498 CNS; HOP-18 NSCLC; RXF-631 renal; DLD-1 colon; M19-MEL melanoma; SNB-78 CNS; HOP-62 NSCLC; DMS 114 small cell lung; DMS 273 small cell lung.
Assay in all cases: growth of human tumour cells (NCI), 48 h

SMILES strings stand for the structures.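 Step 1: Grow cells in 96-well plates. Step 2: Expose to compound for 48 hours at 5 concentrations. Step 3: Interpolate endpoints linearly; if unreached, use highest concentration. The concentration for full growth arrest is given as TGI.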

As for `CC/C(SC)=[N+](\C)[O-]`, the TGI with RPMI-8226 leukemia, with LXFL 529 NSCLC, in the assay on K-562 leukemia, in the assay with SN12C renal, with HOP-92 NSCLC and in the assay with KM20L2 colon was above 100 µM throughout. The TGI in the assay on XF 498 CNS was above 100 µM; in the assay with HOP-18 NSCLC it was above 100 µM; in the assay on RXF-631 renal, above 100 µM; with DLD-1 colon, above 69 µM; in the assay with M19-MEL melanoma, above 100 µM; in the assay on SNB-78 CNS it was above 100 µM. Besides, the TGI is above 100 µM with HOP-62 NSCLC and above 54.2 µM in the assay with DMS 114 small cell lung.
`CC(C)C1COC(c2ccc3ccccc3c2-c2c(O[Si](C)(C)C(C)(C)C)ccc3ccccc23)=N1` (stereo not drawn): the TGI with RPMI-8226 leukemia stood at 33.2 µM; in the assay on LXFL 529 NSCLC it was 28.7 µM; in the assay with K-562 leukemia it was 31.9 µM; in the assay on SN12C renal, 33.2 µM; in the assay with HOP-92 NSCLC, 26.6 µM; with KM20L2 colon it was 37.2 µM. Also, the TGI in the assay on XF 498 CNS was 28.9 µM; in the assay on RXF-631 renal, 61.3 µM; in the assay with DLD-1 colon it was 31.4 µM; in the assay on M19-MEL melanoma, 33.7 µM; with DMS 273 small cell lung, 42.8 µM; in the assay with SNB-78 CNS it was 21.4 µM. Also, the results for the TGI in the assay on HOP-62 NSCLC and with DMS 114 small cell lung were 33.4 µM and 30.9 µM, respectively.
